# pKd: −log10 of the molar value.
# Key:
# [1] = test system: primary cultured hippocampal neurons; test: MQAE intracellular chloride measurement in primary cultured hippocampal neurons; format: cell-based, mouse
# Description: Therefore, we hypothesized that bilirubin activation of WNK1 kinase activity might affect intracellular chloride levels. […] This was detected using the sensitive molecular probe N‐(Ethoxycarbonylmethyl)‐6‐Methoxyquinolinium Bromide (MQAE), as indicated by a reduction in MQAE fluorescence intensity (Figure 4C,E).^[ [32] ^]
# To ascertain whether bilirubin regulates chloride ions through WNK1, we generated Wnk1 gene knockout primary cultured neurons. We achieved neuron‐specific deletion of Wnk1 in hippocampal neurons by transducing primary neurons isolated from Wnk1^flox/flox embryonic mice with a lentivirus expressing hSyn‐Cre‐EGFP.^[ [33], [34] ^] […] Intracellular chloride concentration is crucial for modulating inhibitory synaptic transmission and, consequently, neuronal excitability.
# Since bilirubin‐induced activation of WNK1 kinase activity increases [Cl⁻]i in neurons, we sought to elucidate the downstream effector proteins of WNK1 that are involved in this process. Neuronal [Cl⁻]i is primarily regulated by the Cl⁻‐K⁺ symporter KCC2, with additional modulation by factors such as the Na⁺‐K⁺‐Cl⁻ co‐transporter NKCC1, GABAA receptors, and glycine receptors (GlyR), all of which contribute to [Cl⁻]i homeostasis.^[ [31] ^] To investigate the mechanism underlying bilirubin‐induced changes in [Cl⁻]i, we selectively targeted these proteins using pharmacological inhibitors (VU0463271 for KCC2, bumetanide for NKCC1, bicuculline for GABAA receptors, and strychnine for GlyR) and activated KCC2 using CLP257.^[ [35], [36] ^] […] The bilirubin‐induced effect on [Cl⁻]i was not observed in primary astrocytes (Figure S15A,B, Supporting Information) or the HEK 293T cell line (Figure S15C, Supporting Information), both of which lacked KCC2 expression (Figure S16A,B, Supporting Information), further confirming that the effects of bilirubin and WNK1 on [Cl⁻]i elevation are dependent on KCC2.
# Intracellular chloride concentration ([Cl⁻]i) was measured using the MQAE fluorescent dye (Life Technologies) following established protocols (Zhang, Lee et al. 2015). […]
# WNK1 (1–190) = molecular target: T1, WNK1 (1–190) (Homo sapiens, UniProt Q9H4A3); test: MST, EGFP-tagged WNK1 truncation 1–190; format: binding; conditions: WNK1 1–190 (non-kinase segment), 15 min, HEK293T lysates
# T1 construct: different lengths of WNK1 truncations (1–491, 1–190, 191–491, 491–2382); expressed in transfected cells; host or cells: HEK293T
# T1 sequence (Q9H4A3 1-190): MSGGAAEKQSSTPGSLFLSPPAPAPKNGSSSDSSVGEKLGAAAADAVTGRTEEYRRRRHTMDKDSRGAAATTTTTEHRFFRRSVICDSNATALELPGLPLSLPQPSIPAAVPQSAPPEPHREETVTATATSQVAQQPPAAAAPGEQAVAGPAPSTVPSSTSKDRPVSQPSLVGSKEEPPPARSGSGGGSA
# Description: To further validate these findings, we constructed GFP‐tagged fusion proteins with different lengths of WNK1 truncations (1–491, 1–190, 191–491, 491–2382) based on the WNK1 domains (Figure 3E) and analyzed their binding capacity with bilirubin using MST analysis.^[ [29] ^]
# All WNK1 clones were derived from the original untagged hWNK1 cDNA (NM_018979), which was modified and subcloned into the pcDNA3.1, referred to as “full‐length WNK1” throughout this study. Truncated constructs, including 1–190aa, 191–491aa, 1–491aa, and 491–2382aa fragments, were generated by PCR using the full‐length template and subsequently ligated into linearized pcDNA3.1 vectors. WNK2 was obtained from Addgene Plasmid #24569, and WNK3 was obtained from Addgene Plasmid #81723. Both were subjected to base modifications and cloned into pcDNA3.1. The WNK4 clone was derived from hWNK4 cDNA (NM_032387.5), modified, and subcloned into the pCMV3‐C‐GFPSpark vector.
# In HEK293T cells, proteins tagged with green fluorescent protein (GFP) were expressed. The cells were lysed using the M‐PER Mammalian Protein Extraction Reagent (cat. no. 78505, Thermo Scientific) supplemented with protease inhibitors. Lysates were centrifuged at 12000 × g for 15 min at 4 °C, and the supernatant containing proteins was diluted 10‐fold with 1x PBST. […]
smiles,measurement,setting,value
"C=CC1=C(C)/C(=C/c2[nH]c(Cc3[nH]c(/C=C4\NC(=O)C(C)=C4C=C)c(C)c3CCC(=O)O)c(CCC(=O)O)c2C)NC1=O [bilirubin, Bilirubin]",[Cl−]i levels after Wnk1 deletion,[1]; Wnk1 knockout primary neurons (hSyn-Cre lentivirus),failed to increase
same,intracellular chloride concentration,"[1]; varying concentrations, 30 min, MQAE fluorescence",significant increase
same,pKd,WNK1 (1–190),5.74

# Reference: publication PMC12362796, “Bilirubin Targeting WNK1 to Alleviate NLRP3‐Mediated Neuroinflammation” (Advanced Science, 2025)
